Target: T1, Src recombinant enzyme, N-terminally His6 tagged full-length human protein (Homo sapiens, UniProt P12931)
T1 construct: Src recombinant enzyme was purchased as N-terminally His6 tagged full-length human protein; His6 (N); purchased
Experiment: SRC kinase inhibition assay (AlphaScreen)
Type: biochemical
Details: 80 μM ATP, 90 minutes at 30 degree Celsius
Method: Protocol for SRC Kinase Inhibition Assay. Compounds of the invention were tested for in vitro activity in the following assay: A biotin labeled peptide was used as substrate (amino acid sequence: Biotin-[…]). Src recombinant enzyme was purchased as N-terminally His6 tagged full-length human protein. The 15 μL assay reactions were run in Greiner brand white 384-well low volume plates. […] Compounds were added in a volume of 100 nL from dilution series made up in DMSO, positive and negative control reactions receiving the same volume DMSO without compounds. The plates were sealed with adhesive seals and incubated for 90 minutes at 30 degree Celsius. The reactions were stopped with the detection reagents added at the same time. Product formation was quantified as photochemiluminescence between PerkinElmer AlphaScreenTM beads, using Streptavidin-coated donor and anti-phosphotyrosine (P-[…]) acceptor beads. […] Plates were incubated for 5 hours before being read on a PerkinElmer EnVisionTM plate reader in HTS AlphascreenTM mode. IC50 values were obtained by calculating percent inhibition (% I) for each reaction relative to controls on the same plate (% [SMILES] where CN/CP are the averages of the negative/positive reactions, respectively), then fitting the % I data vs. compound concentration [I] to % I=([…])))) where A is the lower asymptote, B is the upper asymptote, C is the IC50 value, and D is the slope factor.

T1 sequence (P12931 whole entry): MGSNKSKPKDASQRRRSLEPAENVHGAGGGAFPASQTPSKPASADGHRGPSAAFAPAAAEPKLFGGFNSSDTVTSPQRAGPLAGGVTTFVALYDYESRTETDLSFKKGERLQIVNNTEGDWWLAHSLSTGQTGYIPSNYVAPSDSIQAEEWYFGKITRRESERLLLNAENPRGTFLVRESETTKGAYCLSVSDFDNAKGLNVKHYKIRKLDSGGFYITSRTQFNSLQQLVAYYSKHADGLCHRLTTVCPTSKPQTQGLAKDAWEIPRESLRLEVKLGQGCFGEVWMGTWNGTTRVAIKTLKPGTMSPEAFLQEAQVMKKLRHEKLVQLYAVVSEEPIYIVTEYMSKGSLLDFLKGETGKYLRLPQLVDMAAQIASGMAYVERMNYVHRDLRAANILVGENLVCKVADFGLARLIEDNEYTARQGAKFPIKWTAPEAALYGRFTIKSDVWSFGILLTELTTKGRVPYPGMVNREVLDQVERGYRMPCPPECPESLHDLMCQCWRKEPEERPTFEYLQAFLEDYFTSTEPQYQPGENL

Row | IC50 [nM] | Compound
1 | 1 to 100 | Cc1ccc(-c2nn(C(C)(C)CNC(=N)NC#N)c3ncnc(N)c23)cc1 [Example 81]
2 | 100 to 1000 | Cc1ccc(-c2nn(C(C)(C)CNC(=O)c3ccccc3F)c3ncnc(N)c23)cc1 [Example 54]
3 | 1 to 100 | Cc1ccc(-c2nn(C(C)(C)CNC(=O)c3ccc(C)cn3)c3ncnc(N)c23)cc1 [Example 72]
4 | 1 to 100 | Cc1ccc(-c2nn(C(C)(C)CNC(=O)c3cc(CN4CCOCC4)ccn3)c3ncnc(N)c23)cc1 [Example 83]
5 | 100 to 1000 | CC(=N)NCC(C)(C)n1nc(-c2ccc(C)cc2)c2c(N)ncnc21 [Example 80]
6 | 100 to 1000 | Cc1ccc(-c2nn(C(C)(C)CNC3=NCCN3)c3ncnc(N)c23)cc1 [Example 78]
7 | 1 to 100 | Cc1ccc(-c2nn(C(C)(C)CNC(=O)c3cc(CN4CCCCC4)ccn3)c3ncnc(N)c23)cc1 [Example 82]
8 | 100 to 1000 | Cc1ccc(-c2nn(C(C)(C)CNC(=O)CCOc3ccccc3)c3ncnc(N)c23)cc1 [Example 39]
9 | 100 to 1000 | Cc1ccc(-c2nn(C(C)(C)CNC(=O)CCCc3ccc4c(c3)OCCO4)c3ncnc(N)c23)cc1 [Example 36]
10 | 100 to 1000 | Cc1ccc(-c2nn(C(C)(C)CNC(=O)c3ccnc(Cl)c3)c3ncnc(N)c23)cc1 [Example 43]
11 | 100 to 1000 | Cc1ccc(-c2nn(C(C)(C)CNC(=O)c3ccnc(Cl)n3)c3ncnc(N)c23)cc1 [Example 44]
12 | 100 to 1000 | Cc1ccc(-c2nn(C(C)(C)CNC(=O)c3nc(Cl)ccc3Cl)c3ncnc(N)c23)cc1 [Example 48]
13 | 100 to 1000 | Cc1ccc(-c2nn(C(C)(C)CNC(=O)c3cccc(Br)n3)c3ncnc(N)c23)cc1 [Example 40]
14 | 100 to 1000 | Cc1ccc(-c2nn(C(C)(C)CNC(=O)c3cccc(F)n3)c3ncnc(N)c23)cc1 [Example 41]
15 | 100 to 1000 | Cc1ccc(-c2nn(C(C)(C)CNC(=O)c3ccnnc3)c3ncnc(N)c23)cc1 [Example 46]
16 | 1000 to 10000 | Cc1ccc(-c2nn(C(C)(C)CNC(=O)c3nc(Cl)ccc3Br)c3ncnc(N)c23)cc1 [Example 49]
17 | 1000 to 10000 | Cc1ccc(-c2nn(C(C)(C)CNC(=O)c3ccncc3)c3ncnc(N)c23)cc1 [Example 67]
18 | 100 to 1000 | Cc1ccc(-c2nn(C(C)(C)CNC(=O)CCN3CCOCC3)c3ncnc(N)c23)cc1 [Example 37]
19 | 100 to 1000 | Cc1ccc(-c2nn(C(C)(C)CNC(=O)c3ccc(Cl)nc3Cl)c3ncnc(N)c23)cc1 [Example 47]
20 | 100 to 1000 | Cc1ccc(-c2nn(C(C)(C)CNC(=O)CCCOCc3ccccc3)c3ncnc(N)c23)cc1 [Example 35]
21 | 1000 to 10000 | Cc1ccc(-c2nn(C(C)(C)CNC(=O)c3ccc(Br)cn3)c3ncnc(N)c23)cc1 [Example 45]
22 | 100 to 1000 | Cc1ccc(-c2nn(C(C)(C)CNC(=O)c3cccc(C#N)c3)c3ncnc(N)c23)cc1 [Example 34]
23 | 100 to 1000 | Cc1ccc(-c2nn(C(C)(C)CNC(=O)c3cccn3C)c3ncnc(N)c23)cc1 [Example 33]
24 | 1 to 100 | Cc1ccc(-c2nn(C(C)(C)CNC(=O)c3ncccn3)c3ncnc(N)c23)cc1 [Example 58]
25 | 100 to 1000 | CCN(CC)c1ccc(C(=O)NCC(C)(C)n2nc(-c3ccc(C)cc3)c3c(N)ncnc32)cc1 [Example 38]

The remaining lines, values behind:

Row | Compound | IC50 [nM]
26 | CCNC(=O)NCC(C)(C)n1nc(-c2ccc(C)cc2)c2c(N)ncnc21 [Example 7] | 1 to 100
27 | Cc1ccc(-c2nn(C(C)(C)CNC(C)C)c3ncnc(N)c23)cc1 [Example 8] | 100 to 1000
28 | CCOc1ccc(C(=O)NCC(C)(C)n2nc(-c3ccc(C)cc3)c3c(N)ncnc32)cc1Cl [Example 32] | 100 to 1000
29 | Cc1ccc(-c2nn(C(C)(C)CNC(=O)c3cnn(-c4cccc(Cl)c4)c3C(F)(F)F)c3ncnc(N)c23)cc1 [Example 26] | 1 to 100
30 | Cc1ccc(-c2nn(C(C)(C)CNC(=O)Cc3ccccc3)c3ncnc(N)c23)cc1 [Example 9] | 1000 to 10000
31 | CC(=O)c1ccc(OCC(=O)NCC(C)(C)n2nc(-c3ccc(C)cc3)c3c(N)ncnc32)cc1 [Example 25] | 1000 to 10000
32 | Cc1ccc(-c2nn(C(C)(C)CNC(=O)c3cccc(N4CCCCC4)c3)c3ncnc(N)c23)cc1 [Example 22] | 100 to 1000
33 | Cc1ccc(-c2nn(C(C)(C)CNC(=O)c3ccc(N4CCCCC4)cc3)c3ncnc(N)c23)cc1 [Example 21] | 100 to 1000
34 | Cc1ccc(-c2nn(C(C)(C)CNC(=O)c3cc(-c4ccc(F)cc4)ncn3)c3ncnc(N)c23)cc1 [Example 24] | 1000 to 10000
35 | Cc1ccc(-c2nn(C(C)(C)CNC(N)=S)c3ncnc(N)c23)cc1 [6 (compound 6B)] | 1 to 100
36 | Cc1ccc(-c2nn(C(C)(C)CNC(=O)c3cc(C)nn3Cc3ccc(F)cc3)c3ncnc(N)c23)cc1 [Example 27] | 100 to 1000
37 | Cc1ccc(-c2nn(C(C)(C)CNC(=O)c3ccc(CCN)cc3)c3ncnc(N)c23)cc1 [10 (compound 10C)] | 1 to 100
38 | CC(=O)CCCC(=O)NCC(C)(C)n1nc(-c2ccc(C)cc2)c2c(N)ncnc21 [Example 31] | 100 to 1000
39 | CC(=O)NCC(C)(C)n1nc(-c2ccc(C)cc2)c2c(N)ncnc21 [Example 2] | 100 to 1000
40 | Cc1ccc(-c2nn(C(C)(C)CN(C)C)c3ncnc(N)c23)cc1 [Example 3] | 1000 to 10000
41 | Cc1ccc(-c2nn(C(C)(C)CNC(=O)c3cc(-c4ccco4)on3)c3ncnc(N)c23)cc1 [Example 23] | 1 to 100

Row | Compound | IC50 [nM]
42 | CC(=O)CCCCC(=O)NCC(C)(C)n1nc(-c2ccc(C)cc2)c2c(N)ncnc21 [Example 30] | 100 to 1000
43 | Cc1ccc(-c2nn(C(C)(C)CNC(=N)N)c3ncnc(N)c23)cc1 [5 (compound 5B)] | 1 to 100
44 | Cc1ccc(-c2nn(C(C)(C)CNC(=O)c3cc(N4CCOCC4)ccn3)c3ncnc(N)c23)cc1 [70 (compound 70C)] | 100 to 1000
45 | Cc1ccc(-c2nn(C(C)(C)CNC(=O)c3cc(N4CCCCC4)ccn3)c3ncnc(N)c23)cc1 [69 (compound 69C)] | 1 to 100
46 | Cc1ccc(-c2nn(C(C)(C)CNS(=O)(=O)c3ccccn3)c3ncnc(N)c23)cc1 [68 (compound 68B)] | 100 to 1000
47 | CNCC(C)(C)n1nc(-c2ccc(C)cc2)c2c(N)ncnc21 [4 (compound 4C)] | 100 to 1000
48 | Cc1ccc(-c2nn(C(C)(C)CNC(=O)CC#N)c3ncnc(N)c23)cc1 [Example 19] | 1 to 100
49 | Cc1ccc(-c2nn(C(C)(C)CNC(=O)CCCc3ccccc3)c3ncnc(N)c23)cc1 [Example 20] | 100 to 1000
50 | Cc1ccc(-c2nn(C(C)(C)CNC(=O)c3ccc(CN)cc3)c3ncnc(N)c23)cc1 [13 (compound 13C)] | 1 to 100
51 | Cc1ccc(-c2nn(C(C)(C)CNC(=O)CCCCCNC(=O)OCc3ccccc3)c3ncnc(N)c23)cc1 [Example 15] | 100 to 1000
52 | COCCC(=O)NCC(C)(C)n1nc(-c2ccc(C)cc2)c2c(N)ncnc21 [Example 17] | 1 to 100
53 | Cc1ccc(-c2nn(C(C)(C)CNC(=O)CCCN)c3ncnc(N)c23)cc1 [85 (compound 85C)] | 100 to 1000
54 | Cc1ccc(-c2nn(C(C)(C)CNC(=O)c3ccccc3-n3ccnc3)c3ncnc(N)c23)cc1 [Example 14] | 100 to 1000
55 | Cc1ccc(-c2nn(C(C)(C)CNC(=O)c3cnn(-c4ccc(F)cc4)c3C(F)(F)F)c3ncnc(N)c23)cc1 [Example 28] | 1 to 100
56 | CC(=O)CCC(=O)NCC(C)(C)n1nc(-c2ccc(C)cc2)c2c(N)ncnc21 [Example 16] | 1000 to 10000
57 | Cc1ccc(-c2nn(C(C)(C)CNC(=O)c3cccc(N4CCOCC4)c3)c3ncnc(N)c23)cc1 [Example 18] | 100 to 1000

Source: US8962830B2, “Protein kinase inhibitors and methods of treatment” (The Walter and Eliza Hall Institute of Medical Research, priority 2010, dated 2015)
